Article PMC8476002, “Bergamottin a CYP3A inhibitor found in grapefruit juice inhibits prostate cancer cell growth by downregulating androgen receptor signaling and promoting G0/G1 cell cycle block and apoptosis” (PLoS ONE, 2021)

How the values were obtained:
Type in all cases: cell-based, human
[1] = system: AR nuclear localization in LNCaP cells; assay: Confocal microscopy of AR nuclear localization, LNCaP; conditions: bergamottin 10μM, versus DMSO
Procedure: Cells were seeded into 35 mm Glass bottom dish (Cellvis catalog# D35C4-20-1.5-N) in complete media; media was changed to CSSM prior to DHT treatment. The cells were fixed in 4% paraformaldehyde for 20 minutes and permeabilized using permeabilizing buffer (0.2% Tween 20 in PBS) for 5 minutes. Cells were blocked using 10% goat serum diluted in permeabilizing buffer with 1% BSA for 15 minutes. Primary antibodies were diluted at 1:100 in staining buffer (1% BSA in PBS) and incubated for 2 hours at room temperature. Cells were washed three times (5 minutes each) in PBS. Secondary antibodies, TRITC-conjugated Donkey Anti-rabbit (711-025-152) was from Jackson immuno research, West Grove, PA was diluted at 1:100 in staining buffer and incubated for 60 minutes at room temperature. Cells were washed three times (5 minutes) in PBS and stained with 1 μg/mL DAPI (4’, 6-diamidino-2-phenylindole) in PBS for 5 minutes at room temperature. The cells were stored in PBS at 4°C until imaging was completed.
Cells were imaged using confocal laser scanning microscopy on a Nikon A1R using a galvano scanner and a 60× Apo-TIRF oil immersion objective. NIS Elements software form Nikon was used for recording the data.

[2] = system: cell cycle regulating proteins in LNCaP cells; assay: Western blot of cell cycle regulating proteins, LNCaP; conditions: for CDK2, normalized fold change after GAPDH calibration / CDK4, normalized fold change after GAPDH calibration / CDK6, normalized fold change after GAPDH calibration / Cyclin A, normalized fold change after GAPDH calibration / Cyclin B1, normalized fold change after GAPDH calibration / Cyclin D1, normalized fold change after GAPDH calibration / Cyclin D3, normalized fold change after GAPDH calibration / Cyclin E, normalized fold change after GAPDH calibration / Myt 1, normalized fold change after GAPDH calibration / P-Wee1, normalized fold change after GAPDH calibration / P-cdc2, normalized fold change after GAPDH calibration / P-histone H3, normalized fold change after GAPDH calibration / p21, normalized fold change after GAPDH calibration / p27, normalized fold change after GAPDH calibration: LNCAP, 48 hrs., 0 μM = 100
Procedure: Cells were plated at 25–30% confluence when maintained in complete media. When the cells required DHT tretment and media replacement to charcoal stripped serum media (CSSM) they were plated at 35–40% confluence. Bergamottin is dissolved in DMSO (vehicle control) and the amount of DMSO at each treatment group was kept constant. After the completion of the treatment cells were washed in phosphate buffer (PBS) containing 2mMEDTA and 2mM EGTA and lysed in RIPA buffer (50 mM TRIS, 150 mM NaCl, 1% NP40, 0.5% sodium deoxycholate, 0.1% SDS, 2mM EDTA, 2mM EGTA) supplemented with protease and phosphatase inhibitors for total protein isolation. Protein estimation was performed using micro BCA assay and equal protein amponts were loaded on SDS-PAGE gels for western analysis. GAPDH was used as an internal control for total protein. Infrared fluorescent-labeled secondary antibodies were used for detection using Odyssey CLx. The bands were quantified using Odyssey software, which calculates pixel density and automatically takes an area adjacent to each band for background corrections. […]

LNCaP cells = assay: TUNEL apoptosis detection assay, LNCaP; conditions: 10μM, 4 days
Procedure: (§1) To detect apoptosis in the cells after bergamottin treatment In Situ cell death detection kit from Sigma-Aldrich (St. Louis, MO) was used. This apoptosis detection kit fluorescently labels the single and double-stranded DNA breaks caused due to apoptosis using terminal deoxynucleotidyl transferase (TUNEL-reaction). The cells were plated in poly- D- lysine coated 35 mm Glass bottom dish (Cellvis catalog# D35C4-20-1.5-N), treated with bergamottin for the specified time, and dosage and then stained with the kit reagents. The kit recommended protocol was followed. After the staining, the confocal microscope was used to procure images of the cells. The TUNEL assay preferentially labels apoptosis in comparison to necrosis and positive apoptosis is recognized when cells incorporate fluorescent labelled nucleotide (Ex 450 to 500nm and Em 515 to 565-green).

MDAPCa2b cells = assay: TUNEL apoptosis detection assay, MDAPCa2b; conditions: 10μM, 4 days
Procedure: as §1

[3] = LNCaP, low dose 5 and 10 μM, 96 hrs.

SMILES: CC(C)=CCC/C(C)=C/COc1c2ccoc2cc2oc(=O)ccc12 [bergamottin]
- active AR migration to the nucleus with DHT induction (confocal) [1]: significantly reduced
- CDK2, normalized fold change after GAPDH calibration ([2]; Bergamottin 20 μM): 62
- CDK4, normalized fold change after GAPDH calibration ([2]; Bergamottin 20 μM): 46
- CDK6, normalized fold change after GAPDH calibration ([2]; Bergamottin 20 μM): 60
- Cyclin A, normalized fold change after GAPDH calibration ([2]; Bergamottin 20 μM): 80
- Cyclin B1, normalized fold change after GAPDH calibration ([2]; Bergamottin 20 μM): 50
- Cyclin D1, normalized fold change after GAPDH calibration ([2]; Bergamottin 20 μM): 43
- Cyclin D3, normalized fold change after GAPDH calibration ([2]; Bergamottin 20 μM): 68
- Cyclin E, normalized fold change after GAPDH calibration ([2]; Bergamottin 20 μM): 109
- Myt 1, normalized fold change after GAPDH calibration ([2]; Bergamottin 20 μM): 103
- P-Wee1, normalized fold change after GAPDH calibration ([2]; Bergamottin 20 μM): 63
- P-cdc2, normalized fold change after GAPDH calibration ([2]; Bergamottin 20 μM): 18
- P-histone H3, normalized fold change after GAPDH calibration ([2]; Bergamottin 20 μM): 294
- p21, normalized fold change after GAPDH calibration ([2]; Bergamottin 20 μM): 83
- p27, normalized fold change after GAPDH calibration ([2]; Bergamottin 20 μM): 112
- CDK2, normalized fold change after GAPDH calibration ([2]; Bergamottin 30 μM): 67
- CDK4, normalized fold change after GAPDH calibration ([2]; Bergamottin 30 μM): 30
- CDK6, normalized fold change after GAPDH calibration ([2]; Bergamottin 30 μM): 12
- Cyclin A, normalized fold change after GAPDH calibration ([2]; Bergamottin 30 μM): 55
- Cyclin B1, normalized fold change after GAPDH calibration ([2]; Bergamottin 30 μM): 44
- Cyclin D1, normalized fold change after GAPDH calibration ([2]; Bergamottin 30 μM): 12
- Cyclin D3, normalized fold change after GAPDH calibration ([2]; Bergamottin 30 μM): 44
- Cyclin E, normalized fold change after GAPDH calibration ([2]; Bergamottin 30 μM): 53
- Myt 1, normalized fold change after GAPDH calibration ([2]; Bergamottin 30 μM): 82
- P-Wee1, normalized fold change after GAPDH calibration ([2]; Bergamottin 30 μM): 37
- P-cdc2, normalized fold change after GAPDH calibration ([2]; Bergamottin 30 μM): 5
- P-histone H3, normalized fold change after GAPDH calibration ([2]; Bergamottin 30 μM): 35
- p21, normalized fold change after GAPDH calibration ([2]; Bergamottin 30 μM): 102
- p27, normalized fold change after GAPDH calibration ([2]; Bergamottin 30 μM): 183
- CDK4 level (western blot) [2, 3]: did not observe any significant change
- CDK6 level (western blot) [2, 3]: did not observe any significant change
- cdc-2 phosphorylation (western blot) [2, 3]: Decreased cdc-2 phosphorylation
- cyclin B1 level (western blot) [2, 3]: lower
- cyclin D1 level (western blot) [2, 3]: lower
- cyclin D3 level (western blot) [2, 3]: lower
- DNA breaks (TUNEL, apoptosis) (LNCaP cells): increased DNA breaks
- DNA breaks (TUNEL, apoptosis) (MDAPCa2b cells): increased DNA breaks
